Data on 10 molecules can be found in Sander's compilation of Henry's law constants (doi:10.1584/jpestics.18.3_201).

The nature of this series: Henry solubility constant Hcp at 298.15 K (mol/(m3 Pa)). The settings on record: reference: Watanabe (1993).
As for `CCN(CC)C(=O)SCc1ccc(Cl)cc1` [S-(4-chlorobenzyl) diethylthiocarbamate], the “Henry solubility constant Hcp” value was 19.

Take `CCCCOCN(C(=O)CCl)c1c(CC)cccc1CC` [butachlor]: the “Henry solubility constant Hcp” value was determined as 160.

For the molecule `CC(C)OC(=O)Nc1cccc(Cl)c1` [chlorpropham], the “Henry solubility constant Hcp” value was determined as 23.

Regarding `CCOP(=S)(OCC)Oc1cc(C)nc(C(C)C)n1` [diazinon], the “Henry solubility constant Hcp” value was determined as 11.

Regarding `COP(=S)(OC)Oc1ccc([N+](=O)[O-])c(C)c1` [fenitrothion], the “Henry solubility constant Hcp” value came out at 83.

Turning to `CCC(C)c1ccccc1OC(=O)NC` (stereo not given) [fenobucarb], the “Henry solubility constant Hcp” value is 150.

As to `CC(C)OP(=O)(OC(C)C)SCc1ccccc1` [iprobenphos], the “Henry solubility constant Hcp” value was found to be 260.

For the molecule `CCOC(=O)CC(SP(=S)(OC)OC)C(=O)OCC` (stereo not given) [malathion], the “Henry solubility constant Hcp” value was found to be 670.

For `CCCN(CCC)c1c([N+](=O)[O-])cc(C(F)(F)F)cc1[N+](=O)[O-]` [trifluralin], the “Henry solubility constant Hcp” value was 0.91.

Regarding `CNC(=O)Oc1ccc(C)c(C)c1` [xylylcarb], the “Henry solubility constant Hcp” value amounted to 91.
